Assays:
giant foxtail [1] = experiment: Test A preemergence; type: in vivo, Setaria faberii
Procedure, shortened: (§1)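 Visual injury scored 0–100 (100 = complete control) against untreated controls about 10 days after treatment in a greenhouse. Test chemicals, formulated with surfactant in non-phytotoxic solvent, were sprayed on soil preemergence or on 2-10 cm, one- to two-leaf plants postemergence.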

wheat, winter = experiment: Test C postemergence; type: in vivo, Triticum aestivum
Procedure, shortened: (§2)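 Seeds are planted in blended loam soil and sand and treated preemergence, while seedlings in a peat moss/vermiculite medium receive postemergence sprays at 2 to 18 cm height. All plants stay in the greenhouse for 13 to 15 days before visual comparison with controls on a 0–100 scale.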

morningglory = experiment: Test C postemergence; type: in vivo, Ipomoea coccinea
Procedure, shortened: as §2

galium = experiment: Test C postemergence; type: in vivo, Galium aparine
Procedure, shortened: as §2

ragweed = experiment: Test C postemergence; type: in vivo, Ambrosia elatior
Procedure, shortened: as §2

yellow nutsedge = experiment: Test C postemergence; type: in vivo, Cyperus esculentus
Procedure, shortened: as §2

sedge, umbrella = experiment: Test B flooded paddy test; type: in vivo, Cyperus difformis; details: Flood, 250 g ai/ha, 0 to 100 scale where 0 is no effect and 100 is complete control
Procedure, shortened: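 Seedlings are raised to two leaves, flooded to a depth of 3 cm and dosed by adding the compound to the floodwater. Water level is kept constant, and plants are scored visually versus controls 13–15 days later (0 = no effect, 100 = complete control).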

barnyardgrass = experiment: Test A postemergence; type: in vivo, Echinochloa crus-galli
Procedure, shortened: as §1

velvetleaf = experiment: Test A postemergence; type: in vivo, Abutilon theophrasti
Procedure, shortened: as §1

wheat = experiment: Test A postemergence; type: in vivo, Triticum aestivum
Procedure, shortened: as §1

giant foxtail [2] = experiment: Test C postemergence; type: in vivo, Setaria faberii
Procedure, shortened: as §2

[3] = 125 g ai/ha, 0 to 100 scale where 0 is no effect and 100 is complete control
[4] = Postemergence, 31 g ai/ha, scale 0 to 100 (0 no effect, 100 complete control), 13 to 15 days
[5] = Postemergence, 62 g ai/ha, scale 0 to 100 (0 no effect, 100 complete control)
[6] = 500 g ai/ha, 0 to 100 scale where 0 is no effect and 100 is complete control

Fc1cnc(Oc2ccccc2-n2cc(Br)cn2)nc1 [Compound 10, 2-[2-(4-bromo-1H-pyrazol-1-yl)phenoxy]-5-fluoropyrimidine]
pest or weed control at 125 g/ha (giant foxtail [1]; Setaria faberi, pre-emergence, 240 h, 125 g ai/ha, 0 to 100 scale where 0 is no effect and 100 is complete control, read-out: Foxtail, Giant plant response rating): 90%
pest or weed control at 500 g/ha (giant foxtail [1]; Setaria faberi, pre-emergence, 240 h, 500 g ai/ha, 0 to 100 scale, 0 no effect, 100 complete control, approx. 10 days, read-out: Foxtail, Giant plant response rating): 100%
plant injury at 125 g/ha (wheat, winter; Triticum aestivum, post-emergence, 125 g ai/ha, postemergence, read-out: Plant response rating (0 to 100), Wheat): 5%
plant injury at 250 g/ha (wheat, winter; Triticum aestivum, post-emergence, 250 g ai/ha, postemergence, read-out: Plant response rating (0 to 100), Wheat): 10%
plant injury at 31 g/ha (wheat, winter; Triticum aestivum, post-emergence, Postemergence, 31 g ai/ha, scale 0 to 100 (0 no effect, 100 complete control), 13 to 15 days, read-out: Plant response rating, Wheat): 5%
plant injury at 62 g/ha (wheat, winter; Triticum aestivum, post-emergence, Postemergence, 62 g ai/ha, scale 0 to 100 (0 no effect, 100 complete control), read-out: Plant response rating, Wheat): 5%
pest or weed control at 125 g/ha (morningglory; Ipomoea, post-emergence, 125 g ai/ha, postemergence, read-out: Plant response rating (0 to 100), Morningglory): 65%
pest or weed control at 250 g/ha (morningglory; Ipomoea, post-emergence, 250 g ai/ha, postemergence, read-out: Plant response rating (0 to 100), Morningglory): 85%
pest or weed control at 31 g/ha (morningglory; Ipomoea, post-emergence, Postemergence, 31 g ai/ha, scale 0 to 100 (0 no effect, 100 complete control), 13 to 15 days, read-out: Plant response rating, Morningglory): 40%
pest or weed control at 62 g/ha (morningglory; Ipomoea, post-emergence, Postemergence, 62 g ai/ha, scale 0 to 100 (0 no effect, 100 complete control), read-out: Plant response rating, Morningglory): 65%
pest or weed control at 125 g/ha (galium; Galium, post-emergence, 125 g ai/ha, postemergence, read-out: Plant response rating (0 to 100), Galium): 80%
pest or weed control at 250 g/ha (galium; Galium, post-emergence, 250 g ai/ha, postemergence, read-out: Plant response rating (0 to 100), Galium): 95%
pest or weed control at 31 g/ha (galium; Galium, post-emergence, Postemergence, 31 g ai/ha, scale 0 to 100 (0 no effect, 100 complete control), 13 to 15 days, read-out: Plant response rating, Galium): 65%
pest or weed control at 62 g/ha (galium; Galium, post-emergence, Postemergence, 62 g ai/ha, scale 0 to 100 (0 no effect, 100 complete control), read-out: Plant response rating, Galium): 80%
pest or weed control at 125 g/ha (ragweed; Ambrosia artemisiifolia, post-emergence, 125 g ai/ha, postemergence, read-out: Plant response rating (0 to 100), Ragweed): 55%
pest or weed control at 250 g/ha (ragweed; Ambrosia artemisiifolia, post-emergence, 250 g ai/ha, postemergence, read-out: Plant response rating (0 to 100), Ragweed): 80%
pest or weed control at 31 g/ha (ragweed; Ambrosia artemisiifolia, post-emergence, Postemergence, 31 g ai/ha, scale 0 to 100 (0 no effect, 100 complete control), 13 to 15 days, read-out: Plant response rating, Ragweed): 50%
pest or weed control at 62 g/ha (ragweed; Ambrosia artemisiifolia, post-emergence, Postemergence, 62 g ai/ha, scale 0 to 100 (0 no effect, 100 complete control), read-out: Plant response rating, Ragweed): 50%
pest or weed control at 125 g/ha (yellow nutsedge; Cyperus, post-emergence, 125 g ai/ha, postemergence, read-out: Plant response rating (0 to 100), Nutsedge, Yellow): 5%
pest or weed control at 250 g/ha (yellow nutsedge; Cyperus, post-emergence, 250 g ai/ha, postemergence, read-out: Plant response rating (0 to 100), Nutsedge, Yellow): 5%
pest or weed control at 31 g/ha (yellow nutsedge; Cyperus, post-emergence, Postemergence, 31 g ai/ha, scale 0 to 100 (0 no effect, 100 complete control), 13 to 15 days, read-out: Plant response rating, Nutsedge, Yellow): 0%
pest or weed control at 62 g/ha (yellow nutsedge; Cyperus, post-emergence, Postemergence, 62 g ai/ha, scale 0 to 100 (0 no effect, 100 complete control), read-out: Plant response rating, Nutsedge, Yellow): 5%
pest or weed control at 250 g/ha (sedge, umbrella; Cyperus difformis, read-out: Plant response rating, Sedge, Umbrella): 50%
pest or weed control at 125 g/ha (barnyardgrass; Echinochloa crus-galli, post-emergence, 240 h, 125 g ai/ha, 0 to 100 scale where 0 is no effect and 100 is complete control, read-out: Plant response rating, Barnyardgrass): 40%
pest or weed control at 500 g/ha (barnyardgrass; Echinochloa crus-galli, post-emergence, 240 h, 500 g ai/ha, 0 to 100 scale, 0 no effect, 100 complete control, read-out: Plant response rating Barnyardgrass): 90%
pest or weed control at 125 g/ha (velvetleaf; Abutilon theophrasti, post-emergence, 240 h, 125 g ai/ha, 0 to 100 scale where 0 is no effect and 100 is complete control, read-out: Plant response rating, Velvetleaf): 100%
pest or weed control at 500 g/ha (velvetleaf; Abutilon theophrasti, post-emergence, 240 h, 500 g ai/ha, 0 to 100 scale, 0 no effect, 100 complete control, read-out: Plant response rating Velvetleaf): 100%
plant injury at 125 g/ha (wheat; Triticum aestivum, post-emergence, 240 h, 125 g ai/ha, 0 to 100 scale where 0 is no effect and 100 is complete control, read-out: Plant response rating, Wheat): 0%
plant injury at 500 g/ha (wheat; Triticum aestivum, post-emergence, 240 h, 500 g ai/ha, 0 to 100 scale, 0 no effect, 100 complete control, read-out: Plant response rating Wheat): 60%
pest or weed control at 125 g/ha (giant foxtail [2]; Setaria faberi, post-emergence, 125 g ai/ha, postemergence, read-out: Plant response rating (0 to 100), Foxtail, Giant): 5%
pest or weed control at 250 g/ha (giant foxtail [2]; Setaria faberi, post-emergence, 250 g ai/ha, postemergence, read-out: Plant response rating (0 to 100), Foxtail, Giant): 5%
pest or weed control at 31 g/ha (giant foxtail [2]; Setaria faberi, post-emergence, Postemergence, 31 g ai/ha, scale 0 to 100 (0 no effect, 100 complete control), 13 to 15 days, read-out: Plant response rating, Foxtail, Giant): 0%
pest or weed control at 62 g/ha (giant foxtail [2]; Setaria faberi, post-emergence, Postemergence, 62 g ai/ha, scale 0 to 100 (0 no effect, 100 complete control), read-out: Plant response rating, Foxtail, Giant): 0%

N#Cc1cccc(Oc2ncc(Cl)cn2)c1-n1cnc(Br)c1 [Compound 74]
Plant response rating, Foxtail, Giant (giant foxtail [1]; [3]): 90
Foxtail, Giant plant response rating (giant foxtail [1]; 500 g ai/ha, 0 to 100 scale, 0 no effect, 100 complete control, approx. 10 days): 100
Plant response rating (0 to 100), Wheat (wheat, winter; 125 g ai/ha, postemergence): 0
Plant response rating (0 to 100), Wheat (wheat, winter; 250 g ai/ha, postemergence): 5
Plant response rating, Wheat (wheat, winter; [4]): 0
Plant response rating, Wheat (wheat, winter; [5]): 0
Plant response rating (0 to 100), Morningglory (morningglory; 125 g ai/ha, postemergence): 75
Plant response rating (0 to 100), Morningglory (morningglory; 250 g ai/ha, postemergence): 85
Plant response rating, Morningglory (morningglory; [4]): 60
Plant response rating, Morningglory (morningglory; [5]): 75
Plant response rating (0 to 100), Galium (galium; 125 g ai/ha, postemergence): 65
Plant response rating (0 to 100), Galium (galium; 250 g ai/ha, postemergence): 65
Plant response rating, Galium (galium; [4]): 40
Plant response rating, Galium (galium; [5]): 55
Plant response rating (0 to 100), Ragweed (ragweed; 125 g ai/ha, postemergence): 40
Plant response rating (0 to 100), Ragweed (ragweed; 250 g ai/ha, postemergence): 60
Plant response rating, Ragweed (ragweed; [4]): 40
Plant response rating, Ragweed (ragweed; [5]): 40
Plant response rating (0 to 100), Nutsedge, Yellow (yellow nutsedge; 125 g ai/ha, postemergence): 0
Plant response rating (0 to 100), Nutsedge, Yellow (yellow nutsedge; 250 g ai/ha, postemergence): 0
Plant response rating, Nutsedge, Yellow (yellow nutsedge; [4]): 0
Plant response rating, Nutsedge, Yellow (yellow nutsedge; [5]): 0
Plant response rating, Sedge, Umbrella (sedge, umbrella): 70
Plant response rating, Barnyardgrass (barnyardgrass; [3]): 90
Plant response rating, Barnyardgrass (barnyardgrass; 500 g ai/ha, 0 to 100 scale, 0 no effect, 100 complete control): 90
Plant response rating, Velvetleaf (velvetleaf; [3]): 90
Plant response rating, Velvetleaf (velvetleaf; [6]): 100
Plant response rating, Wheat (wheat; [3]): 0
Plant response rating, Wheat (wheat; [6]): 50
Plant response rating (0 to 100), Foxtail, Giant (giant foxtail [2]; 125 g ai/ha, postemergence): 10
Plant response rating (0 to 100), Foxtail, Giant (giant foxtail [2]; 250 g ai/ha, postemergence): 20
Plant response rating, Foxtail, Giant (giant foxtail [2]; [4]): 5
Plant response rating, Foxtail, Giant (giant foxtail [2]; [5]): 5

— patent US9695155B2, “Herbicidal substituted pyrimidinyloxy benzene compounds” (E. I. DU PONT DE NEMOURS AND COMPANY, priority 2013, dated 2017)
